In patent US9440930B2, “Substituted bicyclic dihydropyrimidinones and their use as inhibitors of neutrophil elastase activity” (Boehringer Ingelheim International GmbH, priority 2014, dated 2016):
≈ marks a conversion by molar mass, not a printed value.

Tests used:
Aqueous solubility = type: physicochemical; details: McIlvaine buffer pH 6.8 containing 2.5% DMSO, kinetic from dmso stock, McIlvaine buffer pH 6.8, 2.5% DMSO, 24 h shaking
Method: Assay for Determination of Aqueous Solubility
Starting from a 10 min DMSO stock solution, aliquots are diluted with acetonitrile/water (1/1) and McIlvaine buffer pH 6.8, respectively. After 24 h of shaking, the solutions or suspensions are filtered and analyzed by LC-UV. The amount dissolved in buffer is compared to the amount dissolved in the acetonitrile/water (1/1) solution. Solubility is measured from 0.001 to 0.125 mg/ml at a DMSO concentration of 2.5%. If more than 90% of the compound is dissolved in buffer, the value is marked with “>”.

cytochrome P450 2C9 = biological target: T1, cytochrome P450 2C9 (Homo sapiens, UniProt P11712); assay: Cytochrome P450 2C9 inhibition; type: in vitro ADME; details: human liver microsomes, Diclofenac hydroxylation
T1 construct: is assayed at 37° C. with human liver microsomes; from tissue; host or cells: human liver microsomes
T1 sequence (P11712 whole entry): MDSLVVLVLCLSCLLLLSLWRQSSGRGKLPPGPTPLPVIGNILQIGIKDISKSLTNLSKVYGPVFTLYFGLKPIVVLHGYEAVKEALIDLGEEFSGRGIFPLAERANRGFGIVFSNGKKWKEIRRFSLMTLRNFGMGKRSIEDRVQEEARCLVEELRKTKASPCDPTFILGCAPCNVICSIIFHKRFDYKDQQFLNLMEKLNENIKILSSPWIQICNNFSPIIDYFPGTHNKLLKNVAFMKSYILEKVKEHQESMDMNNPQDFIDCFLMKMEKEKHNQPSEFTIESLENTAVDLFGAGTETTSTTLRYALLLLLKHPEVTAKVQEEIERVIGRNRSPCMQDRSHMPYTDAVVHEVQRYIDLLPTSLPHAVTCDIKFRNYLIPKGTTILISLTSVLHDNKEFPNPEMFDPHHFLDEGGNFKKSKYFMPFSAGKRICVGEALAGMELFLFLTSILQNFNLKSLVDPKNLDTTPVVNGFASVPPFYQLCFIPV
From the text: Assay for Determination of Cytochrome P450 2C9 Inhibition

[1] = biological target: T2, Human neutrophil elastase (Homo sapiens, UniProt P08246); assay: Human Neutrophil Elastase Assay; type: biochemical; details: substrate MeOSuc-Ala-Ala-Pro-Val-AMC 250 μM, pH 7.5, room temperature
T2 construct: purchased Calbiochem 324681
T2 sequence (P08246 30-247 limits assumed): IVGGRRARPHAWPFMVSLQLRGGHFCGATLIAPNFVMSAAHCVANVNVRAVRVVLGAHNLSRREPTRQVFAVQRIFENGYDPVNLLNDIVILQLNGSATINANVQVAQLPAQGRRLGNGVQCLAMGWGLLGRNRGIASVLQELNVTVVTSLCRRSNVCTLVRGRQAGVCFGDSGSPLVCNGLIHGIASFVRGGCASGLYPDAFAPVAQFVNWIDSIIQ
From the text: Human Neutrophil Elastase Assay

[2] = biological target: T3, neutrophil elastase in human plasma (Homo sapiens, UniProt P08246); assay: Neutrophil elastase inhibitory activity in human plasma; type: biochemical; details: zymosan-stimulated human plasma, substrate MeOSuc-Ala-Ala-Pro-Val-AMC 250 μM
T3 construct: The stimulated blood is centrifuged to generate the neutrophil elastase enriched plasma; from tissue; host or cells: plasma from zymosan-stimulated citrated whole blood of healthy human donors
T3 sequence (P08246 30-267): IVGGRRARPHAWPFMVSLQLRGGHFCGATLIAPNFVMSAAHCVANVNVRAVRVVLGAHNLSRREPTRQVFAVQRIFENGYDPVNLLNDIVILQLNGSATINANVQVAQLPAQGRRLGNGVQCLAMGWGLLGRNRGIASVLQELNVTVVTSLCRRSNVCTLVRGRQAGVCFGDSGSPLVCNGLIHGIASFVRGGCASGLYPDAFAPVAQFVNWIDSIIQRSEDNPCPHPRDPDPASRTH
Method: Assay for the Determination of Neutrophil Elastase Inhibitory Activity in Human Plasma
Citrated blood from human healthy donors is mixed with zymosan suspension and incubated at room temperature. This leads to the stimulation of neutrophils and the release of neutrophil elastase into the plasma. The stimulated blood is centrifuged to generate the neutrophil elastase enriched plasma.
• A single 45 ml blood sample is taken into a 50 ml tube containing citrate (3.13%, 5 mL) and the tube is gently inverted 4 times. • Immediately after blood sampling, zymosan working solution (5 mL) is added. • After the addition of zymosan working solution, the tubes are capped, mixed gently and incubated at 22° C. for 15 min on a shaker at 20 rpm. • Make 10 ml aliquots after the incubation time. • Centrifuge the 15 ml tubes at 800 g for 15 min at 4° C. in a Jouan centrifuge. • Harvest the plasma and make 1-5 ml aliquots. • Store the plasma at −80° C.
A dose response curve is generated to calculate the EC50 of the inhibitor. The analysis of the data is performed by the calculation of the percentage of fluorescence in the presence of the test compound compared to the fluorescence of the vehicle control after subtracting the background fluorescence: An inhibitor of the neutrophil elastase enzyme will give values between 100% control (no inhibition) and 0% control (complete inhibition).

[3] = biological target: hERG (human ether-a-go-go-related gene) potassium channel (Homo sapiens, UniProt Q12809); assay: hERG inhibition; type: cell-based
hERG (human ether-a-go-go-related gene) potassium channel, sequence (Q12809 whole entry): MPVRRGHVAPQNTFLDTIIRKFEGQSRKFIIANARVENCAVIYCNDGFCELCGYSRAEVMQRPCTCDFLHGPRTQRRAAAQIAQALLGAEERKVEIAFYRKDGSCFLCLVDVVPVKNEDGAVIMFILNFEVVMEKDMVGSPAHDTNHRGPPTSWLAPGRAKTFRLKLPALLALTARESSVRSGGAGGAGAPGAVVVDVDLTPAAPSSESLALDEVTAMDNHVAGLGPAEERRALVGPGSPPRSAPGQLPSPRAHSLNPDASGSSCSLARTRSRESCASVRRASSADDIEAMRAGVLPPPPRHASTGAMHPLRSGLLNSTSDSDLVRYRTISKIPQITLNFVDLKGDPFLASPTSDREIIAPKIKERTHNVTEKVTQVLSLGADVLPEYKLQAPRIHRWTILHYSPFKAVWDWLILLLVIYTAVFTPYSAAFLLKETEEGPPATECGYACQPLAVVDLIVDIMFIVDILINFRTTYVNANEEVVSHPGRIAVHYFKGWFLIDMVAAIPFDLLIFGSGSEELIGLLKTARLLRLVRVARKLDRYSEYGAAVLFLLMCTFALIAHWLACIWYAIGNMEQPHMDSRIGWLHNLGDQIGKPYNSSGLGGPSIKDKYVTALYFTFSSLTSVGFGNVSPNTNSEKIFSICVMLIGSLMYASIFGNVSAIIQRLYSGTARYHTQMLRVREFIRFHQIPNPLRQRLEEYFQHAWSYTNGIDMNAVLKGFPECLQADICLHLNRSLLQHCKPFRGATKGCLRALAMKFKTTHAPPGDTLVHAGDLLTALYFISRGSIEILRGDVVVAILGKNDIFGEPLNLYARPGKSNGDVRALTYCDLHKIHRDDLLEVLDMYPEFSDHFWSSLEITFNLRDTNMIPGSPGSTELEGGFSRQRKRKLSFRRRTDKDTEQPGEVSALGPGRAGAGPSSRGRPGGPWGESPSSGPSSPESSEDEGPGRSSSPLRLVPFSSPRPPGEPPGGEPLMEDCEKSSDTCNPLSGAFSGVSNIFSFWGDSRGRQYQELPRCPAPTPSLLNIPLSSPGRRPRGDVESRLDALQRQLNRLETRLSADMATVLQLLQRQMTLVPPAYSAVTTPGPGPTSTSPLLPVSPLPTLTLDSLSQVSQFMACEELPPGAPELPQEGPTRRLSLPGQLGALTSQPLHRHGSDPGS

hERG potassium channel = hERG potassium channel (Homo sapiens, UniProt Q12809); assay: hERG inhibition; type: cell-based; details: human; at 10 μM
hERG potassium channel, sequence (Q12809 whole entry): as above

CN1C(=O)N(c2cccc(C(F)(F)F)c2)C2=C(C(=O)CCC2)[C@H]1c1ccc(C#N)cc1[S+](C)[O-] (single isomer, unassigned) [Example 2.2A, 3-Methanesulfinyl-4-[3-methyl-2,5-dioxo-1-(3-trifluoromethyl-phenyl)-1,2,3,4,5,6,7,8-octahydro-quinazolin-4-yl]-benzonitrile]
solubility at 24 h (Aqueous solubility): 55 µg/mL (≈ 113 µM)
IC50 (cytochrome P450 2C9): > 50000 nM
IC50 [1]: < 1 nM
EC50 [2]: 1 nM
IC50 [3]: > 30000 nM
inhibition at 10 µM (hERG potassium channel): 9%
